IC50, AC50 and EC50 data for 13 compounds are collected here from ChEMBL document CHEMBL1201862, “PubChem BioAssay data set” (2004).

Experiment [1] has as its target Major prion protein (Homo sapiens, UniProt P04156). The format is functional, cell-based.
The target in experiment [2] is Cytochrome P450 2D6 (Homo sapiens, UniProt P10635).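 Note: CYP2D6 member of a cytochrome P450 panel assay.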
Experiment [3] in a line: cells.
The nature of experiment [4]: HGIII-sPLA2 enzyme inhibition potency – biochemical, QFRET, IC50, dose response (AID 743457).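 Note: green fluorescence rise as the enzyme cleaves BODIPY PC-A2 in liposomes.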
In experiment [5] the target is Albumin (Bos taurus, UniProt P02769). As to the kind of experiment: Counterscreen for inhibitors of T-cell receptor (TCR)-CD3 interaction: Fluorescence-based biochemical high throughput dose response assay to identify inhibitors of T-cell receptor (TCR)-CD3 interaction using a TAMRA-labeled BSA probe. The format is functional. For orientation: The purpose of a counterscreen is to sort out artefacts and off-target activity.

Experiment [6] addresses T1, Polyadenylate-binding protein 1 (Homo sapiens, UniProt P11940). As to the kind of experiment: MLLE binding blockers, Cy5 peptide tracer – biochemical, fluorescence polarization, Cy5-PAM2 peptide, secondary, miRNA deadenylation inhibitor project, dose response (AID 602260). The format is functional. The note with it: read-out: IC50_Mean. On the technique in general: In fluorescence polarisation assays a small probe gives low polarisation when free and higher when bound to something large.

Experiment [7] addresses T1, Polyadenylate-binding protein 1. Description: MLLE domain peptide-binding blockers, IC50 – biochemical, fluorescence polarization, FITC-PAM2 peptide, dose response (AID 602259). The settings on record: read-out: IC50_Mean. It counts as functional.
The target in experiment [8] is Nonstructural protein 1 (Influenza A virus, UniProt Q194T2). It counts as functional, Influenza A virus (A/California/07/2009(H1N1)).
For experiment [9], the target named is Peroxisome proliferator-activated receptor gamma/Nuclear receptor coactivator 1 (Homo sapiens, UniProt P37231). As to the kind of experiment: TR-FRET dose response biochemical High Throughput Screening assay for agonists of the steroid receptor coactivator 1 (SRC-1) recruitment by the peroxisome proliferator-activated receptor gamma (PPAR gamma): non-selective agonists. [Related pubchem assays (depositor defined):AID1300, AID1808, AID504735, AID631]. The format is protein assay. In general terms: TR-FRET usually uses a lanthanide donor and a delayed reading to cut background.

Experiment [10] has as its target Peroxisome proliferator-activated receptor gamma/Nuclear receptor coactivator 3 (Homo sapiens, UniProt P37231). As to the kind of experiment: TR-FRET dose response biochemical High Throughput Screening assay for agonists of the steroid receptor coactivator 3 (SRC-3) recruitment by the peroxisome proliferator-activated receptor gamma (PPAR gamma): non-selective agonists. [Related pubchem assays: 1301 (Confirmation screen.), 1048 (Primary screen.)]. The format is functional.

In experiment [11] the target is Peroxisome proliferator-activated receptor gamma/Nuclear receptor coactivator 2 (Homo sapiens, UniProt P37231). As to the kind of experiment: TR-FRET dose response biochemical High Throughput Screening assay for agonists of the steroid receptor coactivator 2 (SRC-2) recruitment by the peroxisome proliferator-activated receptor gamma (PPAR gamma): non-selective agonists. [Related pubchem assays: 1297, 1032 ]. It counts as functional.

Experiment [12] has as its target Cytochrome P450 2C9 (Homo sapiens, UniProt P11712).
For experiment [13], the target named is T2, Rac GTPase-activating protein 1 (Homo sapiens, UniProt Q9H0H5).
T2 sequence (Q9H0H5 whole entry): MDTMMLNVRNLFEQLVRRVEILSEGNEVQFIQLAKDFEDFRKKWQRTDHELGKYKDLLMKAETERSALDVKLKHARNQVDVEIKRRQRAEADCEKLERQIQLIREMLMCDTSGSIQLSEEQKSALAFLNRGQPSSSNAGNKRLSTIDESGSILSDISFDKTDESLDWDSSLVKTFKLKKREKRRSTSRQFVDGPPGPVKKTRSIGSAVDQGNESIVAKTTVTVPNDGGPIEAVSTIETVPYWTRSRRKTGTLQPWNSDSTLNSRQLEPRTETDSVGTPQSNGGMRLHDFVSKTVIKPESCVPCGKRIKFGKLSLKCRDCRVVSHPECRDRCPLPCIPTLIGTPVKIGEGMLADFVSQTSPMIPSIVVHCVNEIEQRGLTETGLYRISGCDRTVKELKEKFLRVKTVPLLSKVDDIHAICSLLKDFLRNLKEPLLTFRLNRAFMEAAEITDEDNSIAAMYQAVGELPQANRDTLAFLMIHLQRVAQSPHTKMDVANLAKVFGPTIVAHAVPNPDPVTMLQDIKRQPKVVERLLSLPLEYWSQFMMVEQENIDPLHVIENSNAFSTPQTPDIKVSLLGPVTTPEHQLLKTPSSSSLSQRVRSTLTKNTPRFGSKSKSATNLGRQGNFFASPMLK
As to the kind of experiment: blockers of MgcRacGAP-driven Rac1 GTP hydrolysis – biochemical, ADP Hunter fluorescence, primary and confirmatory, confirmation (AID 624330). It counts as functional.

The target of experiment [14] is T3, Aminopeptidase N (Plasmodium falciparum FcB1/Columbia, UniProt O96935).
T3 sequence (O96935 whole entry): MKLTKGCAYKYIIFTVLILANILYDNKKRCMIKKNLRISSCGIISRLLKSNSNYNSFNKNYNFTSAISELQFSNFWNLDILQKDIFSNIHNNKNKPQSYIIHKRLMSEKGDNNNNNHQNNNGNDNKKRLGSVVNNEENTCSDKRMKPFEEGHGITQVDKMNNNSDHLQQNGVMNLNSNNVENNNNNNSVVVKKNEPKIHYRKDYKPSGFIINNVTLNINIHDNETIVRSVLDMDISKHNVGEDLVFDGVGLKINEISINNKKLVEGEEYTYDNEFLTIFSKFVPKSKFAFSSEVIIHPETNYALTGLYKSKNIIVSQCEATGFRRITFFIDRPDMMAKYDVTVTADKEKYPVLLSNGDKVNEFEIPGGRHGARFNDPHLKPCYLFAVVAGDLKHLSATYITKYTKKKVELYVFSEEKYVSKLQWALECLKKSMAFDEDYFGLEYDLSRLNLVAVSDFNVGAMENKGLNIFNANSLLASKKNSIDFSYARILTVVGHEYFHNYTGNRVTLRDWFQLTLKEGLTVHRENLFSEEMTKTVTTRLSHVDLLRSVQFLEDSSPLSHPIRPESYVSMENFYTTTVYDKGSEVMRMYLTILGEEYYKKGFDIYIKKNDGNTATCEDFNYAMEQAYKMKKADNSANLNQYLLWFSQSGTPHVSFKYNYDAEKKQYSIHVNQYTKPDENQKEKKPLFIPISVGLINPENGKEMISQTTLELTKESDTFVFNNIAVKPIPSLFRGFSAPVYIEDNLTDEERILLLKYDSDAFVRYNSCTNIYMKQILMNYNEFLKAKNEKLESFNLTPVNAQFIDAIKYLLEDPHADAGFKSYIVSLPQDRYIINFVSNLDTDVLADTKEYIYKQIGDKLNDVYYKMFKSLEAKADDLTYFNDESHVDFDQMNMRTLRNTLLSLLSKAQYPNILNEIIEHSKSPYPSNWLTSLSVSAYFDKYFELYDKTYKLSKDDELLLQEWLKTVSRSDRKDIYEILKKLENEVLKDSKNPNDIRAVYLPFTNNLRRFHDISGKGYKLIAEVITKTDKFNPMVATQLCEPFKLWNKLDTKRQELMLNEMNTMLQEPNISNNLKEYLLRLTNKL
As to the kind of experiment: malaria alanyl aminopeptidase activity blockers – biochemical, fluorogenic H-Leu-NHMec substrate, 1536-well (AID 1445). Further details: species or system Plasmodium falciparum 3D7, 3D7.

For experiment [15], the system named is Streptococcus sp. 'group A'. Description: Streptococcus pyogenes SK(-)GAS viability under kanamycin – luminescence, BacTiterGlo, confirmation, counter-screen for streptokinase expression inhibitor project, dose response (AID 1900). The format is functional, organism-based.
The test system of experiment [16] is Streptococcus. Description: GAS UMAA2166 growth inhibition – luminescence, BacTiterGlo, counter-screen for streptokinase expression inhibitor project, dose response (AID 1915).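 Note: potency for reduction of bacterial viability or growth.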 It counts as functional, organism-based.
Experiment [17] is described as follows: general mammalian cell viability loss – activator set, cherry-pick, cytotoxicity control for miR-122 modulator project, dose response (AID 720690).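 Note: HEK293T human cells scored for general mammalian cytotoxicity.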 The format is functional, cell-based.
In experiment [18] the target is T4, Histone-lysine N-methyltransferase NSD2 (Homo sapiens, UniProt O96028).
T4 sequence (O96028 whole entry): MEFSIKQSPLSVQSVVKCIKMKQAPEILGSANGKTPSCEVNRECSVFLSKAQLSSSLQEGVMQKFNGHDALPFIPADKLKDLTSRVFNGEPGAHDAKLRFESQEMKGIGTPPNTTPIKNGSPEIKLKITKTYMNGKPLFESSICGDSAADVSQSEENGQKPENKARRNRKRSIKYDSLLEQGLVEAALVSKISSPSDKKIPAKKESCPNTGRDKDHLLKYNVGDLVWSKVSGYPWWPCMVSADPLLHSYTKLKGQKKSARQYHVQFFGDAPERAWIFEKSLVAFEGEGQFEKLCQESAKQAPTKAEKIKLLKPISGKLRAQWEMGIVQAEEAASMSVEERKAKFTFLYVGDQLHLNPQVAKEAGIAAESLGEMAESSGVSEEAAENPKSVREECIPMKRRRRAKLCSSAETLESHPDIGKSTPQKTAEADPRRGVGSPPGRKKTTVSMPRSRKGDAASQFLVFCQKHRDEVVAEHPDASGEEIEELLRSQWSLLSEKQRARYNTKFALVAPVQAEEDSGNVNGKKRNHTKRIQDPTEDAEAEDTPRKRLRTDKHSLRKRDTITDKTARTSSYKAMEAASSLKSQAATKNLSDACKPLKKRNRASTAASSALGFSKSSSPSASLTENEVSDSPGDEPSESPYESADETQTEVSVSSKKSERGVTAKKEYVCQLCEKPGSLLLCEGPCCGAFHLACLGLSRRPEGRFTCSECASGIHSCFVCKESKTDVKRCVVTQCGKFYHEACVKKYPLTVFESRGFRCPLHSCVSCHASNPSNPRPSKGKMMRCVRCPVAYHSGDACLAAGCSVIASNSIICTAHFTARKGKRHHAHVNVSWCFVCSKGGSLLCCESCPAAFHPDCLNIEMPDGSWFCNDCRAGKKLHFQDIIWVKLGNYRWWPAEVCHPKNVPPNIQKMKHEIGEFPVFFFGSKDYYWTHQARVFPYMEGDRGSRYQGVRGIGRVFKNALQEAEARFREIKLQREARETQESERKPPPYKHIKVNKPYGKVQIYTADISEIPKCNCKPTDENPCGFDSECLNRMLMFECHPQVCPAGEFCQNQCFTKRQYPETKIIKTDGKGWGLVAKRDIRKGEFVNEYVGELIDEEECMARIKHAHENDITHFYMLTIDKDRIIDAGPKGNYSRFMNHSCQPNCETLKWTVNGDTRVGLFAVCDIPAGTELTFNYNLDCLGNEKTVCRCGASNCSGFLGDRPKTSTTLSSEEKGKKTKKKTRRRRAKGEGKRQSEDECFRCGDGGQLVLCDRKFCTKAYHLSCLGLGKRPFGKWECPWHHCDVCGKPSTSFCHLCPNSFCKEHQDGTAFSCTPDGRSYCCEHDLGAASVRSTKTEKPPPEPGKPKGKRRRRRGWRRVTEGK
It counts as biochemical.

The source made the active and inactive calls.

Regarding `Clc1cccc(Nc2ncnc3ccc(Br)cc23)c1`, the IC50 in experiment [1] is 6.28 µM (active); in [3] it was 122 µM (inactive). In experiment [2], the AC50 (commonly the concentration at which the activity in the assay is half-maximal) is 31.6 µM (inconclusive).
Take `CCN(CC)S(=O)(=O)c1ccc(NC(=O)CSc2ncnc3ccccc23)cc1`: the IC50 in experiment [1] was 7.17 µM (active); in [3] it was > 138 µM (inactive).
As to `CCOc1cc(NC(=O)C(C)C)c(OCC)cc1N=C(S)NCc1ccccc1`, the IC50 in experiment [4] is > 122 µM (inactive).
In the case of `COc1cccc(OCC(=O)NNC(=O)c2ccc3ccccc3c2O)c1`, the IC50 is > 94.1 µM (inactive) in experiment [5] and > 122 µM (inactive) in experiment [4].
For `CC(C)c1nc(SCC(=O)N2CC(=O)Nc3ccccc32)c2ccccc2n1`, the results for the IC50 in experiment [1] and in [3] were 2.41 µM (active) and 67.3 µM (inactive), respectively.
For the compound `O=C(CSc1ncnc2ccccc12)NCc1ccco1`, the IC50 in experiment [6] is > 66 µM (inactive); in [7] it was > 66 µM (inactive); in experiment [1], 6.83 µM (active); in [3] it was > 138 µM (inactive).
On to `O=C1c2ccccc2C(=O)c2c1cccc2N1CCOCC1`, for which the figures for the IC50 in experiment [8] and in [4] were 19.7 µM (active) and > 122 µM (inactive), respectively.
As for `c1ccc(Cc2nnc(Sc3ccccc3)c3ccccc23)cc1`, the EC50 (usually the concentration giving half of the maximal effect) in experiment [9] was > 79.4 µM (inactive); in experiment [10], > 79.4 µM (not active); in experiment [11], 2.35 µM (active). Moreover, the IC50 in [1] was 6.51 µM (active); in [3], 64 µM (inactive). The AC50 in [12] is 25.1 µM (inconclusive).
Turning to `Cc1ccc(Nc2nnc(S)s2)c(C)c1`, the IC50 is 154 µM (active) in [13] and > 122 µM (inactive) in [4].
As for `Cc1[nH]n(-c2ccccc2)c(=O)c1N=Nc1ccccc1O`, the IC50 in [14] is < 1 µM (active); in experiment [5], > 94.1 µM (inactive). For the same compound, the EC50 in experiment [15] was 1.48 µM (active); in experiment [16] it was 2.12 µM (active).
For the compound `COCC(=O)N1[C@H](CO)[C@@H](c2ccccc2)[C@H]1CNC(=O)c1ccccn1`, the AC50 in experiment [17] is 37.2 µM (active).
Same read-out and setting: the result for `O=C(Nc1ccc(Cl)cc1)N1C[C@H]2[C@@H](c3ccccc31)[C@H](CO)N2CC1CCCCC1` reads 28.7 µM (active).
Take `CC1CCCC(C)N1/N=C/c1ccc(O)c(O)c1` (configuration not stated): the IC50 in experiment [5] is > 94.1 µM (inactive). The AC50 in experiment [18] is 9.77 µM (active).
